# Experimental data taken from the supplement of paper PMC10307832.
# Legend:
# Assay in all cases: relative viability (nuclei count vs DMSO), 5 days (fraction); higher = more cells survive
# Midostaurin + Linsitinib = compound: CO[C@@H]1[C@H](N(C)C(=O)c2ccccc2)C[C@H]2O[C@]1(C)n1c3ccccc3c3c4c(c5c6ccccc6n2c5c31)C(=O)NC4 [Midostaurin] + C[C@]1(O)C[C@@H](c2nc(-c3ccc4ccc(-c5ccccc5)nc4c3)c3c(N)nccn32)C1 [Linsitinib] (partner 1 µM)
# Procedure, shortened: (§1)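 Each reported value is a median over duplicate plates. It expresses relative viability: treated-well nuclei count divided by vehicle-well nuclei count. Lung cancer cell lines in 1536-well plates were dosed by pin tool a day after seeding, alone with one drug or with a fixed anchor-drug dose plus five library-drug doses (not always all listed) in √10 steps, and nuclei were counted after 5 days.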
# [1] = compound: COc1cc(-c2nn([C@H]3CC[C@H](N4CCN(C(C)=O)CC4)CC3)c3ncnc(N)c23)ccc1NC(=O)c1cc2ccccc2n1C + CC(=O)c1c(C)c2cnc(Nc3ccc(N4CCNCC4)cn3)nc2n(C2CCCC2)c1=O [Palbociclib] (partner 0.5 µM)
# Procedure, shortened: as §1
# [2] = compound: COc1cc(-c2nn([C@H]3CC[C@H](N4CCN(C(C)=O)CC4)CC3)c3ncnc(N)c23)ccc1NC(=O)c1cc2ccccc2n1C + Nc1ncn([C@H]2C[C@H](O)[C@@H](CO)O2)c(=O)n1 [Decitabine] (partner 2 µM)
# Procedure, shortened: as §1
# Midostaurin + Crizotinib = compound: CO[C@@H]1[C@H](N(C)C(=O)c2ccccc2)C[C@H]2O[C@]1(C)n1c3ccccc3c3c4c(c5c6ccccc6n2c5c31)C(=O)NC4 [Midostaurin] + C[C@@H](Oc1cc(-c2cnn(C3CCNCC3)c2)cnc1N)c1c(Cl)ccc(F)c1Cl [Crizotinib] (partner 1 µM)
# Procedure, shortened: as §1
# [3] = compound: COc1cc(-c2nn([C@H]3CC[C@H](N4CCN(C(C)=O)CC4)CC3)c3ncnc(N)c23)ccc1NC(=O)c1cc2ccccc2n1C + CC1(C)CCC(c2ccc(Cl)cc2)=C(CN2CCN(c3ccc(C(=O)NS(=O)(=O)c4ccc(N[C@H](CCN5CCOCC5)CSc5ccccc5)c(S(=O)(=O)C(F)(F)F)c4)cc3)CC2)C1 [Navitoclax] (partner 0.5 µM)
# Procedure, shortened: as §1
Cell Line,relative viability (Midostaurin + Linsitinib; first compound 0.01 µM),relative viability (Midostaurin + Linsitinib; first compound 0.03162 µM),relative viability (Midostaurin + Linsitinib; first compound 0.1 µM),relative viability (Midostaurin + Linsitinib; first compound 0.3162 µM),relative viability ([1]; first compound 0.0128 µM),relative viability ([1]; first compound 0.04048 µM),relative viability ([1]; first compound 0.128 µM),relative viability ([1]; first compound 1.28 µM),relative viability ([2]; first compound 0.0128 µM),relative viability ([2]; first compound 0.04048 µM),relative viability ([2]; first compound 0.128 µM),relative viability ([2]; first compound 1.28 µM),relative viability (Midostaurin + Crizotinib; first compound 0.01 µM),relative viability (Midostaurin + Crizotinib; first compound 0.03162 µM),relative viability (Midostaurin + Crizotinib; first compound 0.1 µM),relative viability (Midostaurin + Crizotinib; first compound 0.3162 µM),relative viability ([3]; first compound 0.0128 µM),relative viability ([3]; first compound 0.04048 µM),relative viability ([3]; first compound 0.128 µM),relative viability ([3]; first compound 1.28 µM)
201T,1.05,1,1.07,1.04,0.353,0.402,0.337,0.294,0.929,0.919,0.809,0.615,1.07,1.01,1.01,1.05,1.27,1.3,1.22,1.03
A549,0.609,0.59,0.511,0.423,,,,,0.237,0.252,0.228,0.245,0.796,0.665,0.589,0.26,1.22,1.22,1.17,1.15
A-427,1.14,1.08,1.09,1.09,0.544,0.554,0.551,0.521,0.529,0.589,0.571,0.666,0.949,0.794,0.735,0.707,1.06,0.763,1.04,0.795
ABC-1,0.854,0.546,0.628,0.727,0.646,0.84,0.391,0.469,1.19,1.03,0.835,0.998,0.981,1.28,1.12,0.582,,,,
BEN,0.926,0.905,1.02,0.978,0.485,0.466,0.435,0.457,0.571,0.733,0.708,0.582,1.12,0.889,1.17,0.935,0.062,0.261,0.0628,0.0568
CAL-12T,0.721,0.672,0.808,0.676,0.485,0.277,0.459,0.24,,,,,0.616,0.572,0.646,0.251,1.2,1.41,1.27,1.44
COR-L23,0.863,0.802,0.764,0.764,0.324,0.253,0.313,0.24,0.509,0.451,0.446,0.499,0.653,0.633,0.541,0.464,0.972,1.29,0.9,0.982
COR-L 105,0.818,0.922,0.766,0.727,0.388,0.474,0.4,0.302,0.645,0.724,0.653,0.559,0.835,0.738,0.692,0.698,0.728,0.813,0.78,0.456
